Where two headings read alike, the source gives them in different places.
Tests used:
[1] = analgesic effect on mice (method of Koster); assay type: in vivo; settings: for ED50: Mus musculus, po; for Therapeutic index: p.o.
Procedure:  The analgesic effect was determined on mice by the method of Koster, R.
Anderson, M., De Beer, E. J., Fred.

[2] = acute toxicity on white mice (strain CFLP); settings: mouse, in vivo, 4 days observation
Procedure: The acut toxicity of the new compounds according to the invention was determined on white mice of both sexes weighing 18-24 g belonging to the strain CFLP. Administration was effected with an oral or intraperitoneal dosage of 20 ml/kg. After treatment the animals were kept under observation for 4 days.

ischiadic nerve of rats = test: local anaesthetic effect on the ischiadic nerve of rats (method of Truant and d'Amato); assay type: in vivo; settings: for Duration 0.25% / EC50: rats, ischiadic nerve; for Duration 0.25%: 0.25% concentration; for EC50: local anaesthesia; for Relative efficiency: referred to Lidocaine
Description: The local anaesthetic effect was investigated on the ischiadic nerve of rats by means of the method of Truant and d'Amato /Truant, A. P. and Wiedling, S.: Acta Chirurg. Scand. 116, 351 /1958//. Lidocaine served as reference substance.
In Table III. below, the relative efficiency referred to Lidocaine and the duration of the effect on application of 0.25% concentrations of Lidocaine are given.

nicotine-lethality = test: inhibition of nicotine-lethality on mice (method of Stone); assay type: in vivo; settings: for ED50: Mus musculus, po, read-out: ED50 /p.o./; for Therapeutic index: nicotine-lethality inhibition
Procedure: The inhibition of nicotine-lethality was determined on mice by the method of Stone /Stone, C. A. et al.: Arch. Intern.

orthostatic hypotension = test: influence on the orthostatic hypotension; assay type: in vivo; settings: qualitative
noradrenaline = noradrenaline antagonistic (alpha-receptor blocking) effect; assay type: in vivo, cats
[3] = hypotensive effect on anaesthesized cats; assay type: in vivo; settings: doses of 3 and 5 mg/kg
Procedure: (§1) The hypotensive effect of the new compounds was tested on anaesthesized cats. The compound of Example 7, administered in doses of 3 and 5 mg/kg, results in a prolonged decrease of blood pressure of 40 Hgmm. […] This compound, orally tested on waking rats of normal tension in a dosage of 100 mg/kg, results in a decrease of blood pressure of 13 Hgmm.

carotid occlusion reflex = test: effect on the carotid occlusion reflex; assay type: in vivo, cats; settings: qualitative
Procedure: as §1

isoproterenol = isoproterenol antagonistic (beta-receptor blocking) effect; assay type: in vivo, cats
[4] = blood pressure of waking rats of normal tension, oral; assay type: in vivo; settings: orally, 100 mg/kg
Procedure: as §1

[5] = po, per os, read-out: LD50 per os.

Row | SMILES | ED50 [1] [mg/kg] | LD50 at 96 h ([2]; ip, read-out: LD50 i.p.) [mg/kg] | LD50 at 96 h [2, 5] [mg/kg] | Therapeutic index [1] | ED50 (nicotine-lethality; mice, p.o., nicotine-lethality) [mg/kg] | Therapeutic index (nicotine-lethality; mice, p.o.) | other results
1 | CCCCC1CCCCC1=NOCCN(C)C (stereo not shown) [Example 1, 2-n-butyl-1-/2'-dimethylaminoethoxyimino/-cyclohexane] | 320 | 135 | 580 | – | – | – | –
2 | CCCCC1CCCCC1=NOCCCN(C)C (stereo not shown) [Example 3, 2-n-butyl-1-/3'-dimethylaminopropoxyimino/-cyclohexane] | 45 | 100 | 430 | 9 | – | – | –
3 | CCCCC1CCCCC1=NOCC(C)CN(C)C (stereo not shown) [Example 4, 2-n-butyl-1-/2'-methyl-3'-dimethylaminopropoxyimino/-cyclohexane] | – | 110 | 400 | – | – | – | Duration 0.25% (ischiadic nerve of rats): 31 min; EC50 (ischiadic nerve of rats): 0.15 % conc.; Relative efficiency (ischiadic nerve of rats): 1.13
4 | CCCCC1CCCCC1=NOCCCN1CCN(Cc2ccccc2)CC1 (stereo not shown) [Example 5, 2-n-butyl-1-[3'-/4"-benzylpiperazinyl/-propoxyimino]-cyclohexane] | 250 | 240 | 1300 | 5.2 | – | – | –
5 | CCCC=C1CCCCC1=NOCCCN1CCN(C)CC1 [Example 7, 2-butylidene-1-[3'-/4"-methylpiperazinyl/-propoxyimino]-cyclohexane] | – | 330 | 1600 | – | 155 | 10.0 | influence on the orthostatic hypotension (orthostatic hypotension): no influence on the orthostatic hypotension; ED50 (noradrenaline; Felis catus, iv, read-out: noradrenaline antagonistic i.v. ED50): 2.3 mg/kg; alpha-receptor blocking effect (noradrenaline; qualitative): alpha- and beta-receptor blocking effect; prolonged decrease of blood pressure [3]: 40 Hgmm; effect on the carotid occlusion reflex (carotid occlusion reflex): decreases the effect on the carotid occlusion reflex; ED50 (isoproterenol; Felis catus, iv, read-out: isoproterenol antagonistic i.v. ED50): 2.5 mg/kg; beta-receptor blocking effect (isoproterenol; qualitative): alpha- and beta-receptor blocking effect; decrease of blood pressure [4]: 13 Hgmm
6 | CCCC=C1CCCCC1=NOCCCN1CCN(Cc2ccccc2)CC1 [Example 8, 2-butylidene-[3'-/4"-benzylpiperazinyl/-propoxyimino]-cyclohexane] | 290 | 230 | 1450 | 5 | – | – | –
7 | CCCCC=C1CCCCC1=NOCCCN1CCN(C)CC1 [Example 9, 2-pentylidene-1-[3'-/4"-methylpiperazinyl/-propoxyimino]-cyclohexane] | 500 | 200 | 3000 | 6 | 150 | 20.0 | Duration 0.25% (ischiadic nerve of rats): 64 min; EC50 (ischiadic nerve of rats): 0.25 % conc.; Relative efficiency (ischiadic nerve of rats): 0.76
8 | CCCCC=C1CCCCC1=NOCCCN1CCN(Cc2ccccc2)CC1 [Example 10, 2-pentylidene-1-[3'-/4"-benzylpiperazinyl/-propoxyimino]-cyclohexane] | 140 | 160 | 1800 | 13.0 | – | – | –
9 | C=CCC1CCCCC1=NOCCCN1CCN(C)CC1 (stereo not shown) [Example 14, 2-allyl-[3'-/4"-methylpiperazinyl/-propoxyimino]-cyclohexane] | – | 310 | 1600 | – | 70 | 22.0 | –
10 | CCCCCC=C1CCCCC1=NOCCCN1CCN(C)CC1 [Example 15, 2-hexylidene-1-[3'-/4"-methylpiperazinyl/propoxyimino]-cyclohexane] | – | 200 | 3000 | – | 190 | 16.0 | –
11 | CCCCCCCC=C1CCCCC1=NOCCCN1CCN(C)CC1 [Example 16, 2-octylidene-1-[3'-/4"-methylpiperazinyl/propoxyimino]-cyclohexane] | 200 | 270 | 3000 | 15.0 | – | 17.6 | ED50 (nicotine-lethality): 150 mg/kg
12 | CCN(CC)CC(=O)Nc1c(C)cccc1C [Lidocaine, reference compound] | – | – | – | – | – | – | Duration 0.25% (ischiadic nerve of rats): 24 min; EC50 (ischiadic nerve of rats): 0.19 % conc.; Relative efficiency (ischiadic nerve of rats): 1.00
13 | OC(CCN1CCCCC1)(c1ccccc1)C1CCCCC1 (stereo not shown) [Trihexyphenidyl, reference compound] | – | – | – | – | 40 | 9.13 | –

Reference: patent publication US4395413A, “Oxime ethers and pharmaceutical compositions containing the same” (Egyt Gyogyszervegyeszeti Gyar, priority 1979, dated 1983)
